{"source": "patent US20230212131A1", "about": "“COLLAGEN 1 TRANSLATION INHIBITORS AND METHODS OF USE THEREOF” (Anima Biotech Inc., priority 2020, published 2023)", "data": [{"tested_on": "collagen 1 (COL1)", "assay": "WI-38 collagen 1 inhibition assay", "type": "cell-based, human", "conditions": "Cellular EC50, WI-38 cells; values are classes of LogEC50", "from_the_text": "All compounds were profiled for cellular potency in inhibition of collagen 1 (COL1) protein translation using a phenotypic screening platform.\nWI-38 cells (ATCC® CCL-75™) were maintained in MEM EAGLE (NEAA) W. GLUTAMIN (Biological Industries, Cat. 06-1040-15-1A) containing 10% fetal bovine serum (FBS) and 1% Penicillin-Streptomycin Solution. To synchronize the cells (cell cycle synchronization) prior to induction of collagen synthesis, the cells were starved using DMEM-low glucose supplemented with 0.25% FBS for two hours and then without FBS for 24 hours. To induce collagen synthesis, the cells were treated with a collagen induction cocktail for the indicated time. Compounds were added with induction.\nCells in 96-well or 384-well plates were fixed for 20 min in 4% paraformaldehyde (PFA, ENCO, Cat. sc-281692). Following two washes with 1×PBS, cells were treated with hydrogen peroxide (Acros, Cat: 7722-84-1) for 10 minutes and then washed twice with 1×PBS. Cells were then incubated over-night at 4° C. with Anti-Collagen I (Sigma-Aldrich, Cat: C 2456) antibody and washed three times with 1×PBS. Cells were then incubated with a suitable secondary fluorescently-tagged antibody and nuclei stained with DAPI, for 1 hour, and then washed 3 times with 1×PBS.\nCell images were taken with Operetta (Perkin Elmer, USA), a wide-field fluorescence microscope at 20× magnification. After acquisition, the images were transferred to Columbus software (Perkin-Elmer) for image analysis. In Columbus, cells were identified by their nucleus, using the “Find Nuceli” module and cytoplasm was detected based on the secondary antibody channel. Subsequently, the fluorescent signal was enumerated in the identified cell region. Data was exported to a data analysis and visualization software, Tibco Spotfire, USA.", "values": [{"smiles": "Cc1ccc(C(=O)Nc2nc(-c3cccnc3C)cs2)cn1", "note": "[Compound 344, 6-methyl-N-[4-(2-methyl-3-pyridyl)thiazol-2-yl]pyridine-3-carboxamide]", "COL1 Efficacy (LogEC50)": "+++ (+++: <−6)"}, {"smiles": "Cc1ccc(C(=O)Nc2nc(-c3cncnc3C)cs2)cn1", "note": "[Compound 347, 6-methyl-N-[4-(4-methylpyrimidin-5-yl)thiazol-2-yl]pyridine-3-carboxamide]", "COL1 Efficacy (LogEC50)": "++ (++: −5 to −6)"}, {"smiles": "O=C(Nc1nc(-c2ccccc2Cl)co1)c1ccc(N2CCOCC2)cc1", "note": "[Compound 368, N-[4-(2-chlorophenyl)oxazol-2-yl]-4-morpholino-benzamide]", "COL1 Efficacy (LogEC50)": "++ (++: −5 to −6)"}, {"smiles": "O=C(Nc1nc(-c2ccccn2)cs1)c1ccc(N2CCOCC2)cc1", "note": "[Compound 370, 4-morpholino-N-[4-(2-pyridyl)thiazol-2-yl]benzamide]", "COL1 Efficacy (LogEC50)": "+ (+: >−5)"}, {"smiles": "COCCC(=O)N1CCN(c2ccc(C(=O)Nc3nc(-c4ccccc4Cl)cs3)cc2)CC1", "note": "[Compound 376, N-(4-(2-chlorophenyl)thiazol-2-yl)-4-(4-(3-methoxypropanoyl)piperazin-1-yl)benzamide]", "COL1 Efficacy (LogEC50)": "+++ (+++: <−6)"}, {"smiles": "COCCN1CCN(c2ccc(C(=O)Nc3nc(-c4ccccc4Cl)cs3)cc2)CC1", "note": "[Compound 377, N-(4-(2-chlorophenyl)thiazol-2-yl)-4-(4-(2-methoxyethyl)piperazin-1-yl)benzamide]", "COL1 Efficacy (LogEC50)": "+++ (+++: <−6)"}, {"smiles": "COCCOc1ccccc1-c1csc(NC(=O)c2ccc(N3CCOCC3)cc2)n1", "note": "[Compound 378, N-(4-(2-(2-methoxyethoxy)phenyl)thiazol-2-yl)-4-morpholinobenzamide]", "COL1 Efficacy (LogEC50)": "+ (+: >−5)"}, {"smiles": "COCCOCc1ccccc1-c1csc(NC(=O)c2ccc(N3CCOCC3)cc2)n1", "note": "[Compound 379, N-(4-(2-((2-methoxyethoxy)methyl)phenyl)thiazol-2-yl)-4-morpholinobenzamide]", "COL1 Efficacy (LogEC50)": "++ (++: −5 to −6)"}, {"smiles": "O=C(Nc1nc(-c2ccccc2Cl)cs1)c1ccc(C2CCOCC2)cc1", "note": "[Compound 380, N-(4-(2-chlorophenyl)thiazol-2-yl)-4-(tetrahydro-2H-pyran-4-yl)benzamide]", "COL1 Efficacy (LogEC50)": "+++ (+++: <−6)"}, {"smiles": "O=C(Nc1nc(-c2ccccc2Cl)cs1)c1ccc(C2CCOCC2)cn1", "note": "[Compound 381, N-(4-(2-chlorophenyl)thiazol-2-yl)-5-(tetrahydro-2H-pyran-4-yl)picolinamide]", "COL1 Efficacy (LogEC50)": "+++ (+++: <−6)"}, {"smiles": "O=C(Nc1nc(-c2ccccc2Cl)cs1)c1ccc(C2CCS(=O)(=O)CC2)cn1", "note": "[Compound 383, N-(4-(2-chlorophenyl)thiazol-2-yl)-5-(1,1-dioxidotetrahydro-2H-thiopyran-4-yl)picolinamide]", "COL1 Efficacy (LogEC50)": "+++ (+++: <−6)"}, {"smiles": "O=C(Nc1nc(N2CCCC2=O)cs1)c1ccc(N2CCOCC2)cn1", "note": "[Compound 395, 5-morpholino-N-(4-(2-oxopyrrolidin-1-yl)thiazol-2-yl)picolinamide]", "COL1 Efficacy (LogEC50)": "+ (+: >−5)"}, {"smiles": "CN(C(=O)c1ccc(N2CCOCC2)cc1)c1nc(-c2ccccc2Cl)cs1", "note": "[Compound 399, N-(4-(2-chlorophenyl)thiazol-2-yl)-N-methyl-4-morpholinobenzamide]", "COL1 Efficacy (LogEC50)": "++ (++: −5 to −6)"}, {"smiles": "CN(C(=O)c1ccc(N2CCOCC2)cn1)c1nc(-c2ccccc2Cl)cs1", "note": "[Compound 400, N-(4-(2-chlorophenyl)thiazol-2-yl)-N-methyl-5-morpholinopicolinamide]", "COL1 Efficacy (LogEC50)": "++ (++: −5 to −6)"}, {"smiles": "CS(=O)(=O)N1CCN(c2ccc(C(=O)Nc3nc(-c4ccccc4Cl)cs3)nc2)CC1", "note": "[Compound 403, N-(4-(2-chlorophenyl)thiazol-2-yl)-5-(4-(methylsulfonyl)piperazin-1-yl)picolinamide]", "COL1 Efficacy (LogEC50)": "+++ (+++: <−6)"}, {"smiles": "O=C(Nc1nc(-c2ccccc2Cl)c[nH]1)c1ccc(N2CCOCC2)cn1", "note": "[Compound 404, N-(4-(2-chlorophenyl)-1H-imidazol-2-yl)-5-morpholinopicolinamide]", "COL1 Efficacy (LogEC50)": "+++ (+++: <−6)"}, {"smiles": "O=C(Nc1nc(-c2ccccc2Cl)cs1)c1ccc(N2CCOCC2)cc1Cl", "note": "[Compound 409, 2-chloro-N-(4-(2-chlorophenyl)thiazol-2-yl)-4-morpholinobenzamide]", "COL1 Efficacy (LogEC50)": "++ (++: −5 to −6)"}, {"smiles": "Cc1cc(N2CCOCC2)ccc1C(=O)Nc1nc(-c2ccccc2Cl)cs1", "note": "[Compound 410, N-(4-(2-chlorophenyl)thiazol-2-yl)-2-methyl-4-morpholinobenzamide]", "COL1 Efficacy (LogEC50)": "+++ (+++: <−6)"}, {"smiles": "O=C(Nc1nc(-c2ccccc2Cl)cs1)c1ccc(N2CCOCC2)cc1C(F)(F)F", "note": "[Compound 411, N-(4-(2-chlorophenyl)thiazol-2-yl)-4-morpholino-2-(trifluoromethyl)benzamide]", "COL1 Efficacy (LogEC50)": "+++ (+++: <−6)"}, {"smiles": "O=C(Nc1nc(-c2ccccc2Cl)cs1)C12CC(N3CCOCC3)(C1)C2", "note": "[Compound 416, N-(4-(2-chlorophenyl)thiazol-2-yl)-3-morpholinobicyclo[1.1.1]pentane-1-carboxamide]", "COL1 Efficacy (LogEC50)": "++ (++: −5 to −6)"}, {"smiles": "CS(=O)(=O)N1CCN(C23CC(C(=O)Nc4nc(-c5ccccc5Cl)cs4)(C2)C3)CC1", "note": "[Compound 418, N-(4-(2-chlorophenyl)thiazol-2-yl)-3-(4-(methylsulfonyl)piperazin-1-yl)bicyclo[1.1.1]pentane-1-carboxamide]", "COL1 Efficacy (LogEC50)": "++ (++: −5 to −6)"}, {"smiles": "O=C(Nc1nc(-c2ccccc2Cl)cs1)C1CC(N2CCOCC2)C1", "note": "(stereo not shown) [Compound 421, (1s,3s)-N-(4-(2-chlorophenyl)thiazol-2-yl)-3-morpholinocyclobutane-1-carboxamide]", "COL1 Efficacy (LogEC50)": "+ (+: >−5)"}, {"smiles": "CS(=O)(=O)N1CCN(C(=O)[C@H]2C[C@H](C(=O)Nc3nc(-c4ccccc4Cl)cs3)C2)CC1", "note": "[Compound 430, (1r,3r)-N-(4-(2-chlorophenyl)thiazol-2-yl)-3-(4-(methylsulfonyl)piperazine-1-carbonyl)cyclobutane-1-carboxamide]", "COL1 Efficacy (LogEC50)": "+ (+: >−5)"}, {"smiles": "COc1cc(N2CCOCC2)ccc1C(=O)Nc1nc(-c2ccccc2Cl)cs1", "note": "[Compound 441, N-(4-(2-chlorophenyl)thiazol-2-yl)-2-methoxy-4-morpholinobenzamide]", "COL1 Efficacy (LogEC50)": "++ (++: −5 to −6)"}, {"smiles": "CN(C)CC(=O)N1CCN(c2ccc(C(=O)Nc3nc(-c4ccccc4Cl)cs3)nc2)CC1", "note": "[Compound 443, N-(4-(2-chlorophenyl)thiazol-2-yl)-5-(4-(dimethylglycyl)piperazin-1-yl)picolinamide]", "COL1 Efficacy (LogEC50)": "+++ (+++: <−6)"}, {"smiles": "CN(C)CCC(=O)N1CCN(c2ccc(C(=O)Nc3nc(-c4ccccc4Cl)cs3)nc2)CC1", "note": "[Compound 444, N-(4-(2-chlorophenyl)thiazol-2-yl)-5-(4-(3-(dimethylamino)propanoyl)piperazin-1-yl)picolinamide]", "COL1 Efficacy (LogEC50)": "+++ (+++: <−6)"}, {"smiles": "O=C(Nc1nc(-c2ccccc2Cl)cs1)c1ccc(N2CCN(C(=O)CO)CC2)cn1", "note": "[Compound 445, N-(4-(2-chlorophenyl)thiazol-2-yl)-5-(4-(2-hydroxyacetyl)piperazin-1-yl)picolinamide]", "COL1 Efficacy (LogEC50)": "+++ (+++: <−6)"}, {"smiles": "O=C(Nc1nc(-c2ccccc2Cl)cs1)c1ccc(N2CCC(O)CC2)cn1", "note": "[Compound 446, N-(4-(2-chlorophenyl)thiazol-2-yl)-5-(4-hydroxypiperidin-1-yl)picolinamide]", "COL1 Efficacy (LogEC50)": "+++ (+++: <−6)"}, {"smiles": "COCc1ccccc1-c1csc(NC(=O)c2ccc(N3CCN(S(C)(=O)=O)CC3)cn2)n1", "note": "[Compound 447, N-(4-(2-(methoxymethyl)phenyl)thiazol-2-yl)-5-(4-(methylsulfonyl)piperazin-1-yl)picolinamide]", "COL1 Efficacy (LogEC50)": "+++ (+++: <−6)"}, {"smiles": "O=C(Nc1nc(-c2ccccc2Cl)cs1)c1ccc(N2CCC3(CC2)COC3)cn1", "note": "[Compound 448, N-(4-(2-chlorophenyl)thiazol-2-yl)-5-(2-oxa-7-azaspiro[3.5]nonan-7-yl)picolinamide]", "COL1 Efficacy (LogEC50)": "+++ (+++: <−6)"}, {"smiles": "COCC(=O)N1CC2(C1)CN(c1ccc(C(=O)Nc3nc(-c4ccccc4Cl)cs3)nc1)C2", "note": "[Compound 450, N-(4-(2-chlorophenyl)thiazol-2-yl)-5-(6-(2-methoxyacetyl)-2,6-diazaspiro[3.3]heptan-2-yl)picolinamide]", "COL1 Efficacy (LogEC50)": "+++ (+++: <−6)"}, {"smiles": "O=C(Nc1nc(-c2ccccc2Cl)cs1)c1ccc(N2CCN(C(=O)CCO)CC2)cn1", "note": "[Compound 455, N-(4-(2-chlorophenyl)thiazol-2-yl)-5-(4-(3-hydroxypropanoyl)piperazin-1-yl)picolinamide]", "COL1 Efficacy (LogEC50)": "+++ (+++: <−6)"}, {"smiles": "CN(C)Cc1ccccc1-c1csc(NC(=O)c2ccc(N3CCN(S(C)(=O)=O)CC3)cn2)n1", "note": "[Compound 460, N-(4-(2-((dimethylamino)methyl)phenyl)thiazol-2-yl)-5-(4-(methylsulfonyl)piperazin-1-yl)picolinamide hemiformate]", "COL1 Efficacy (LogEC50)": "++ (++: −5 to −6)"}, {"smiles": "CC(=O)N1CCN(c2csc(C(=O)Nc3nc(-c4ccccc4Cl)cs3)c2)CC1", "note": "[Compound 462, 4-(4-acetylpiperazin-1-yl)-N-(4-(2-chlorophenyl)thiazol-2-yl)thiophene-2-carboxamide]", "COL1 Efficacy (LogEC50)": "++ (++: −5 to −6)"}]}]}
